Laboratory results: patent publication US12589130B2, “Aloe extracts for microbial neutralisation” (2QR RESEARCH B.V., priority 2020, dated 2026)

Test system: Staphylococcus aureus
Assay: Aggregation of fluorescently labelled microorganisms, MAC (Example 1)
Assay type: cell-based
Method: Microbial cells were fluorescently labelled with fluorescein isothiocyanate (FITC, Sigma-Aldrich, St Louis, MO, USA) or SYTO™ 24 green fluorescent nucleic acid stain (Thermo Fisher, Rockford, IL, USA). FITC labelling was performed by incubation in a 0.2 M NaHCO3 pH 9.5 buffer with a final concentration of 0.2 mg/ml FITC (from a 2 mg/ml FITC stock in DMSO) and shaking for 1 hour at 37° C. and subsequently extensively washing with phosphate buffered saline (PBS). SYTO-24 labelling was performed in PBS using a final 1 μM concentration of the dye for at least 30 minutes and subsequently washing with PBS. […] Aggregation was examined immediately or at a more convenient moment using a fluorescence microscope. […]
The Minimal Aggregation Concentration (MAC), the lowest concentration of polysaccharides still convincingly showing microbial aggregation, was determined by 2-fold serial dilutions and expressed in mg or microgram polysaccharides/ml. […] Quantification of samples was based on dry weight determination unless otherwise indicated.
10× concentrated Aloe vera leaf juice, a 10× decolorized liquid made from purified inner leaf fillet that contained not less than 10% polysaccharides, was purchased at a commercial supplier (ACTIValoe® Aloe vera Gel 10X-D, AloeCorp, Harlingen, TX, USA). […] The Minimal Aggregation Concentration (MAC) of the >12 kDa fraction was determined and compared to that of D-mannose.

O=C[C@@H](O)[C@@H](O)[C@H](O)[C@H](O)CO [D-mannose]
MAC (Minimal Aggregation Concentration towards Staphylococcus aureus, mg polysaccharides/ml): >16 mg/mL
aggregating activity (highest concentration tested (16 mg/ml)): did not have aggregating activity
